Patent publication US12264156B2, “Compounds and pharmaceutical compositions thereof for the treatment of diseases” (GALAPAGOS NV, priority 2018, dated 2025)
pEC50, pIC50: −log10 of the molar value.

How the values were obtained:
[1] = biological target: T1, SIK3 (Homo sapiens, UniProt Q9Y2K2); experiment: ADP-Glo kinase assay, SIK3; assay type: biochemical; conditions: ADP-Glo SIK kinase assay
T1 construct: purchased SignalChem S12-11G-100
How it was run: (§1)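 ADP-Glo luminescent assay of ADP formed by SIK2 or SIK3 with substrate after ATP addition, 120 min at RT. Remaining ATP depleted 40 min, then ADP converted to ATP and read by luciferase luminescence after 30 min. Controls: 1% DMSO and 10 μM staurosporine (final).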

[2] = biological target: T2, SIK1 (Homo sapiens, UniProt P57059); experiment: ADP-Glo kinase assay, SIK1; assay type: biochemical; conditions: ADP-Glo SIK kinase assay
T2 construct: purchased Carna Biosciences 02-131
T2 sequence (P57059 whole entry): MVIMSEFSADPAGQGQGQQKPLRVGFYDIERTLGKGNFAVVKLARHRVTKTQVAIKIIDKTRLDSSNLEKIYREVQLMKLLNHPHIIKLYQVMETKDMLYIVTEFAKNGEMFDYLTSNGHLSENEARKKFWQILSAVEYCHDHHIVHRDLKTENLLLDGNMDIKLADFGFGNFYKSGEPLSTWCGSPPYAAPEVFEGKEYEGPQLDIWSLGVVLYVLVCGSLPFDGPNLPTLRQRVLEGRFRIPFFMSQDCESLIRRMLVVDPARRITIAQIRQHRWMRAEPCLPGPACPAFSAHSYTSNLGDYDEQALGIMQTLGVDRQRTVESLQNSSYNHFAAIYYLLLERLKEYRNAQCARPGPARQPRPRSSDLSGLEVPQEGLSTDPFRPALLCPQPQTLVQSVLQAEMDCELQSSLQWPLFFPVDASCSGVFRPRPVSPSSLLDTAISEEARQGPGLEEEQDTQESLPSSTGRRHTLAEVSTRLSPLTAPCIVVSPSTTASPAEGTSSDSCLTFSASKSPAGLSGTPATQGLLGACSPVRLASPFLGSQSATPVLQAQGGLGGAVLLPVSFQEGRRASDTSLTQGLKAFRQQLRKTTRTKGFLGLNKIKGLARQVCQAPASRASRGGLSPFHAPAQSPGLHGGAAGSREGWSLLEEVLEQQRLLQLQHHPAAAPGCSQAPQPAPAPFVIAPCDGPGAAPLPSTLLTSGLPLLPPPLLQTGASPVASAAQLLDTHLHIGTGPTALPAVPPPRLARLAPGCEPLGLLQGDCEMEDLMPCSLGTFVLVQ
How it was run: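 Wells with 1% DMSO or 10 μM staurosporine (final) define the control window. The kinase reaction with substrate and ATP runs 120 min at RT, followed by ADP-Glo detection: ATP depletion (40 min) and ADP-derived luminescence (30 min).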

[3] = system: LPS-induced TNFα in monocytes; experiment: Monocytes assay: LPS-triggered TNFα (ELISA); assay type: cell-based, human; conditions: Homo sapiens, Monocyte, LPS 200 ng/mL, supernatant after 4 h
How it was run: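 Supernatant TNFα was quantified by luminol-based sandwich ELISA after 4 h stimulation with LPS (200 ng/mL final). The cells were CD14-bead-purified monocytes from human PBMCs, 100 000 per well, exposed to 3-fold compound dilutions for 1 h at 37° C beforehand, with DMSO at 0.2%. Results are reported as percent inhibition.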

[4] = biological target: T3, SIK2 (Homo sapiens, UniProt Q9H0K1); experiment: ADP-Glo kinase assay, SIK2; assay type: biochemical; conditions: ADP-Glo SIK kinase assay
T3 construct: purchased ThermoFisher Scientific PV4792
T3 sequence (Q9H0K1 whole entry): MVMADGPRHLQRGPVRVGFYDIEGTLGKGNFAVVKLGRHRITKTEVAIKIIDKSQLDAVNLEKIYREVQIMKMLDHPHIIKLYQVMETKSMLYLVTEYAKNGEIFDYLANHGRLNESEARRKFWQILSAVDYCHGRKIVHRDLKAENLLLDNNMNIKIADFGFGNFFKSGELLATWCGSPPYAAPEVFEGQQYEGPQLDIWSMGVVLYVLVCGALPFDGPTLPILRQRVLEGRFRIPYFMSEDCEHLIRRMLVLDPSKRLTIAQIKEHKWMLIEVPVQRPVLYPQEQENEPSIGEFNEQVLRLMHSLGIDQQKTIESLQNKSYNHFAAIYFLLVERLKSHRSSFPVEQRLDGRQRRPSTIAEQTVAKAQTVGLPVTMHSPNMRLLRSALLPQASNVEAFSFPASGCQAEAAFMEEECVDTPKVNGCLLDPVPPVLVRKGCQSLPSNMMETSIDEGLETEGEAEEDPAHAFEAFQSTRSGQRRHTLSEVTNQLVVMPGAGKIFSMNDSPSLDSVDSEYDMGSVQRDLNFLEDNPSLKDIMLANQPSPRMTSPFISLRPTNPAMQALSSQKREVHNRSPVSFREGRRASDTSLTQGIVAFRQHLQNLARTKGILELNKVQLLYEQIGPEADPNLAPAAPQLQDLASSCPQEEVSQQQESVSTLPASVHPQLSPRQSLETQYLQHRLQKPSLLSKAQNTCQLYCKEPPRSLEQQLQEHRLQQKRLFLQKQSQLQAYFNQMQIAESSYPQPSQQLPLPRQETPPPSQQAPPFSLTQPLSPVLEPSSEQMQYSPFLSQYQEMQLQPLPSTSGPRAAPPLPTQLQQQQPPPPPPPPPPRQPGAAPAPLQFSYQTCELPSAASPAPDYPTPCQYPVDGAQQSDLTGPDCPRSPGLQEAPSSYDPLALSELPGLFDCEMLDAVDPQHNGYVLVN
How it was run: as §1

[5] = system: LPS triggered IL-10 secretion in monocytes; experiment: Monocytes assay: LPS-triggered IL-10 (ELISA); assay type: cell-based, human; conditions: LPS 200 ng/mL, supernatant after 4 h, maximal fold change vs LPS only
How it was run: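 Human CD14+ monocytes, magnetically isolated from buffy-coat PBMCs, were seeded at 100 000 cells/well and preincubated with compound for 1 h at 37° C (0.2% DMSO). LPS was then added at a final 200 ng/mL for 4 h. Supernatant IL-10 was quantified by chemiluminescent sandwich ELISA against a standard curve.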

T1 sequence (Q9Y2K2 whole entry): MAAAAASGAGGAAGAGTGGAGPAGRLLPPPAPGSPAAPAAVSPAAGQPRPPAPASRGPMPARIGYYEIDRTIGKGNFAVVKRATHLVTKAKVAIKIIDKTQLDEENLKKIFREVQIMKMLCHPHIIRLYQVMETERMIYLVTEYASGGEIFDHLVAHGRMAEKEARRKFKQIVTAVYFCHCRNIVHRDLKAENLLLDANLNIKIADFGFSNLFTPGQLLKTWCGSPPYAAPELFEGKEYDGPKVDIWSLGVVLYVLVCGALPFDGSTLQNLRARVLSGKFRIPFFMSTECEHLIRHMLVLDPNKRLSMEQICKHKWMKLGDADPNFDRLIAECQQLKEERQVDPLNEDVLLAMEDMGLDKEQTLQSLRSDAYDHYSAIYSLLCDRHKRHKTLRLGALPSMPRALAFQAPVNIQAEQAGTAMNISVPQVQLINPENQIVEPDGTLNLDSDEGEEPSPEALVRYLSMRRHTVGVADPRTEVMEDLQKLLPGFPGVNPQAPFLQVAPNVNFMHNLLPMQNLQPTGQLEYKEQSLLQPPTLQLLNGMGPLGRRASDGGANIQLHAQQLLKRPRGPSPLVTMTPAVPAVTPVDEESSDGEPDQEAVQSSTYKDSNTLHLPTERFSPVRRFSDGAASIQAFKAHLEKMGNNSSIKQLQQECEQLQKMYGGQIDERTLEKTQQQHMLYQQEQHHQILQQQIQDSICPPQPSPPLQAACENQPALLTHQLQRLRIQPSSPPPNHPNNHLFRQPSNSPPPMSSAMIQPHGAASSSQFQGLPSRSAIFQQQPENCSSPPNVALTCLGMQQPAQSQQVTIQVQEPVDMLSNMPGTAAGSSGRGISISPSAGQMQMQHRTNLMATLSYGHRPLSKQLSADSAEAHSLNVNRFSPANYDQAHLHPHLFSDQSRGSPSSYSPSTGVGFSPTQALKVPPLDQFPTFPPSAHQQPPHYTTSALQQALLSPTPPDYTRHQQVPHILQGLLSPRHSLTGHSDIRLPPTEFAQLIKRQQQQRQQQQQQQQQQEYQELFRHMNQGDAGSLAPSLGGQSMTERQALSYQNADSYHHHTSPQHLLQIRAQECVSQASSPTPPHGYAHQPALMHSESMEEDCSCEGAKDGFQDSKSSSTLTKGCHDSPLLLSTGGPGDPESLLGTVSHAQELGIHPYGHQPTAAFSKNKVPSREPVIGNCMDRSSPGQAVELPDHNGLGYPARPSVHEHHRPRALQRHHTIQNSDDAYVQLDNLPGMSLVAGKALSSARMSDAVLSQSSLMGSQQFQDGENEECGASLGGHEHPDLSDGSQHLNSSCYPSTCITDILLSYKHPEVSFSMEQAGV

SMILES	pIC50 [1]	pIC50 [2]	pEC50 ([3]; 4 h)	pIC50 [4]	IL-10 FCmax median [5]	pEC50 [3]
CCOC(=O)C1(C)CCN(CCCOc2ccn3c(-c4cc(OC)c(C(=O)NC5CC5)c(OC(F)F)c4)cnc3c2)CC1 [compound 380, ethyl 1-[3-[3-[4-(cyclopropylcarbamoyl)-3-(difluoromethoxy)-5-methoxy-phenyl]imidazo[1,2-a]pyridin-7-yl]oxypropyl]-4-methyl-piperidine-4-carboxylate]	8.00 to 11.00	7.00 to 8.00	7.00 to 10.00	8.00 to 11.00	++ (>1.5-4.5)	
COc1cc(-c2cnc3cc(OC4C[C@H]5CC[C@@H](C4)N5CCC#N)ccn23)cc(OC(F)F)c1C(=O)NC1CC1 (stereo partly drawn) [Cpd 271, 4-[7-[[(1S,5R)-8-(2-cyanoethyl)-8-azabicyclo[3.2.1]octan-3-yl]oxy]imidazo[1,2-a]pyridin-3-yl]-N-cyclopropyl-2-(difluoromethoxy)-6-methoxy-benzamide]	8.00 to 11.00	6.30 to 7.00	6.00 to 7.00	7.00 to 8.00	++ (>1.5-4.5)	
COc1cc(-c2cnc3cc(OCCCN4CCC45COC5)ccn23)cc(OC(F)F)c1C(=O)NC1CC1 [compound 300, N-cyclopropyl-2-(difluoromethoxy)-6-methoxy-4-[7-[3-(6-oxa-1-azaspiro[3.3]heptan-1-yl)propoxy]imidazo[1,2-a]pyridin-3-yl]benzamide]	8.00 to 11.00	7.00 to 8.00	7.00 to 10.00	8.00 to 11.00	+++ (>4.5)	
COc1cc(-c2cnc3cc(OCCCN4CCC5(COC5)C4)ccn23)cc(OC(F)F)c1C(=O)NC1CC1 [compound 285, N-cyclopropyl-2-(difluoromethoxy)-6-methoxy-4-[7-[3-(2-oxa-7-azaspiro[3.4]octan-7-yl)propoxy]imidazo[1,2-a]pyridin-3-yl]benzamide]	8.00 to 11.00	7.00 to 8.00	6.00 to 7.00	8.00 to 11.00	+++ (>4.5)	
COc1cc(-c2cnc3cc(OCCNC(=O)C(F)F)ccn23)cc(OC(F)F)c1C(=O)NC1CC1 [Cpd 371, N-cyclopropyl-4-[7-[2-[(2,2-difluoroacetyl)amino]ethoxy]imidazo[1,2-a]pyridin-3-yl]-2-(difluoromethoxy)-6-methoxy-benzamide]	8.00 to 11.00	8.00 to 11.00	6.00 to 7.00	8.00 to 11.00	++ (>1.5-4.5)	
COc1cc(-c2cnc3cc(OCCCN4CCC(F)(F)C(O)C4)ccn23)cc(OC(F)F)c1C(=O)NC1CC1 (stereo not drawn) [compound 344, N-cyclopropyl-4-[7-[3-(4,4-difluoro-3-hydroxy-1-piperidyl)propoxy]imidazo [1,2-a]pyridin-3-yl]-2-(difluoromethoxy)-6-methoxy-benzamide]	8.00 to 11.00	7.00 to 8.00	7.00 to 10.00	8.00 to 11.00	++ (>1.5-4.5)	
COc1cc(-c2cnc3cc(OCCCN4CC(O)(C(F)(F)F)C4)ccn23)cc(OC(F)F)c1C(=O)NC1CC1 [compound 348, N-cyclopropyl-2-(difluoromethoxy)-4-[7-[3-[3-hydroxy-3-(trifluoromethyl)azetidin-1-yl]propoxy]imidazo[1,2-a]pyridin-3-yl]-6-methoxy-benzamide]	8.00 to 11.00	7.00 to 8.00	7.00 to 10.00	8.00 to 11.00	++ (>1.5-4.5)	
COc1cc(-c2cnc3cc(OC[C@H]4CCCN(C(C)C)C4)ccn23)cc(OC(F)F)c1C(=O)NC1CC1 [compound 329, N-cyclopropyl-2-(difluoromethoxy)-4-[7-[[(3S)-1-isopropyl-3-piperidyl]methoxy]imidazo [1,2-a]pyridin-3-yl]-6-methoxy-benzamide]	8.00 to 11.00	7.00 to 8.00	7.00 to 10.00	8.00 to 11.00	+++ (>4.5)	
COc1cc(-c2cnc3cc(OCCCN4CC(O)C(F)(F)C4)ccn23)cc(OC(F)F)c1C(=O)NC1CC1 (stereo not drawn) [compound 345, N-cyclopropyl-4-[7-[3-(3,3-difluoro-4-hydroxy-pyrrolidin-1-yl)propoxy]imidazo[1,2-a]pyridin-3-yl]-2-(difluoromethoxy)-6-methoxy-benzamide]	8.00 to 11.00	7.00 to 8.00	7.00 to 10.00	8.00 to 11.00	+++ (>4.5)	
CCOC(=O)C1(O)CCN(CCCOc2ccn3c(-c4cc(OC)c(C(=O)NC5CC5)c(OC(F)F)c4)cnc3c2)CC1 [compound 381, ethyl 1-[3-[3-[4-(cyclopropylcarbamoyl)-3-(difluoromethoxy)-5-methoxy-phenyl]imidazo[1,2-a]pyridin-7-yl]oxypropyl]-4-hydroxy-piperidine-4-carboxylate]	8.00 to 11.00	7.00 to 8.00	7.00 to 10.00	8.00 to 11.00	++ (>1.5-4.5)	
CCOC(=O)CN1[C@@H]2CC[C@H]1CC(Oc1ccn3c(-c4cc(OC)c(C(=O)NC5CC5)c(OC(F)F)c4)cnc3c1)C2 (stereo partly drawn) [compound 272, ethyl 2-[(1R,5S)-3-[3-[4-(cyclopropylcarbamoyl)-3-(difluoromethoxy)-5-methoxy-phenyl]imidazo[1,2-a]pyridin-7-yl]oxy-8-azabicyclo[3.2.1]octan-8-yl]acetate]	7.00 to 8.00	6.30 to 7.00		7.00 to 8.00	+++ (>4.5)	7.00 to 10.00
COc1cc(-c2cnc3cc(OCC(O)CN4CCC(O)CC4)ccn23)cc(OC(F)F)c1C(=O)NC1CC1 (stereo not drawn) [compound 379, N-cyclopropyl-2-(difluoromethoxy)-4-[7-[2-hydroxy-3-(4-hydroxy-1-piperidyl)propoxy]imidazo [1,2-a]pyridin-3-yl]-6-methoxy-benzamide]	8.00 to 11.00	7.00 to 8.00	6.00 to 7.00	8.00 to 11.00	++ (>1.5-4.5)	
COc1cc(-c2cnc3cc(OCC(O)CN4CC(O)(C(F)(F)F)C4)ccn23)cc(OC(F)F)c1C(=O)NC1CC1 (stereo not drawn) [compound 375, N-cyclopropyl-2-(difluoromethoxy)-4-[7-[2-hydroxy-3-[3-hydroxy-3-(trifluoromethyl)azetidin-1-yl]propoxy]imidazo[1,2-a]pyridin-3-yl]-6-methoxy-benzamide]	8.00 to 11.00	7.00 to 8.00	6.00 to 7.00	8.00 to 11.00	+++ (>4.5)	
COc1cc(-c2cnc3cc(OCCCN4CCCC5(COC5)C4)ccn23)cc(OC(F)F)c1C(=O)NC1CC1 [compound 303, N-cyclopropyl-2-(difluoromethoxy)-6-methoxy-4-[7-[3-(2-oxa-8-azaspiro[3.5]nonan-8-yl)propoxy]imidazo[1,2-a]pyridin-3-yl]benzamide]	8.00 to 11.00	7.00 to 8.00	7.00 to 10.00	8.00 to 11.00	+++ (>4.5)	
COc1cc(-c2cnc3cc(OC[C@H]4CCN(C(C)C)C4)ccn23)cc(OC(F)F)c1C(=O)NC1CC1 [compound 316, N-cyclopropyl-2-(difluoromethoxy)-4-[7-[[(3S)-1-isopropylpyrrolidin-3-yl]methoxy]imidazo[1,2-a]pyridin-3-yl]-6-methoxy-benzamide]	8.00 to 11.00	7.00 to 8.00	7.00 to 10.00	8.00 to 11.00	+++ (>4.5)	
